In experiment [1] the test system is β-galactosidase activity inherent in the MDA-MB-231-derived extracellular vesicles. In words: Evaluation of β-galactosidase activity of MDA-MB-231-derived extracellular vesicles in 96-well plate. Format: biochemical, Human. The conditions noted are these: Example 33, 30° C., no CD9/CD63/CD81 detection system. How it is done:
For detection of MMP14 activity, 1 mM Custom #2 and a 100 µM resorufin β-D-galactopyranoside solution were diluted with the buffer ([…]) containing 10 μM Custom #2 and 5 μM resorufin β-D-galactopyranoside. In addition, the solution was diluted 2-fold with the buffer (4) to prepare a detection solution (2). Nonfluorescent resorufin β-D-galactopyranoside is degraded by β-galactosidase to produce fluorescent resorufin. In this case, the maximum wavelengths of excitation and fluorescence of resorufin are 570 nm and 585 nm, respectively.
In addition, 50 μL of the detection solution (1) was added to 50 μL of each of the prepared standard samples with seven concentrations and the sample for BG measurement, and the resultant solution was used in measurement of MMP14 activity and β-galactosidase activity with a 96-well plate.
Evaluation was performed in the same manner as in Example 1 except that the reaction temperature was set to 30° C. ΔRFU was calculated by subtracting the measured value of the sample for BG measurement from the measured value of each of the samples. In this case, resorufin produced by β-galactosidase activity was simultaneously measured at an excitation wavelength of 545±20 nm and a fluorescence wavelength of 590±20 nm, and ΔRFU was calculated similarly.

Experiment [2] concerns CD9/CD63/CD81 in the extracellular vesicles. In words: Digital CD9/CD63/CD81 sandwich detection with biotinylated detection antibody and streptavidin-conjugated β-galactosidase. Format: binding, Human. Particulars: Example 33, 30° C., 4 h. The method, then: An anti-CD9 antibody (ab58989), an anti-CD63 antibody (ab59479), and an anti-CD81 antibody (ab59477) were buffer-exchanged into Biotinylation Reaction Buffer to provide an antibody solution. A biotinylation reagent NHS-PEG4-Biotin was added to the solution, and the mixture was stirred and then subjected to a reaction at room temperature for 30 minutes. After that, the resultant was washed with Biotinylation Reaction Buffer, and then recovered with Biotinylation Reaction Buffer to provide a biotinylated detection antibody solution. The biotinylated detection antibody solution was stored at 4° C. until use.
For detection of MMP14 activity, 1 mM Custom #2 and a 100 µM resorufin β-D-galactopyranoside solution were diluted with the buffer (4) to prepare a MMP14 and CD9/CD63/CD81 cocktail detection solution (1) containing 10 μM Custom #2 and 5 μM resorufin β-D-galactopyranoside. In addition, the solution was diluted 2-fold with the buffer (4) to prepare a detection solution (2). Nonfluorescent resorufin β-D-galactopyranoside is degraded by β-galactosidase to produce fluorescent resorufin. In this case, the maximum wavelengths of excitation and fluorescence of resorufin are 570 nm and 585 nm, respectively.
The observation of fluorescence derived from each fluorescent substance was performed under the same conditions as in Example 19 to acquire a fluorescence image. In this case, a TRITC filter was used in the observation of the fluorescence from resorufin.

Regarding `O=c1ccc2nc3ccc(O[C@@H]4O[C@H](CO)[C@H](O)[C@H](O)[C@H]4O)cc3oc-2c1` [resorufin β-D-galactopyranoside], the “β-galactosidase activity (temporal changes in fluorescence intensity)” value in experiment [1] is given as “the activity was not able to be detected at all”. The “Expected value λ (CD9/CD63/CD81)” value stood at 0.00927 in experiment [2] (EV 0 (BG)); 2.86 in experiment [2] (EV X1 (sample 10 μg/mL)); 1.87 in experiment [2] (EV X1/3); 0.750 in experiment [2] (EV X1/9); 0.339 in experiment [2] (EV X1/27); 0.0928 in experiment [2] (EV X1/81). Moreover, the “Expected value λ (CD9/CD63/CD81)” value in experiment [2] (EV X1/243) is listed as 0.0427; in experiment [2] (EV X1/729) it was 0.0240. Further, the “Number of positives (CD9/CD63/CD81)” value is reported as 20 in experiment [2] (EV 0 (BG)); 2,166 in experiment [2] (EV X1 (sample 10 μg/mL)); 2,315 in experiment [2] (EV X1/3); 1,544 in experiment [2] (EV X1/9); 725 in experiment [2] (EV X1/27); 144 in experiment [2] (EV X1/81). Moreover, the entries for the “Number of positives (CD9/CD63/CD81)” value in experiment [2] (EV X1/243) and in experiment [2] (EV X1/729) were 78 and 44, respectively.

Source of the values: patent US20250290928A1, “METHOD, KIT AND DEVICE FOR DETECTING EXTRACELLULAR VESICLES” (priority 2022, published 2025).
